Source: ChEMBL document CHEMBL1201862, “PubChem BioAssay data set” (2004)
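Cultured in 96-well plates, cells were exposed to test compound for 48 hours across five concentrations. Here, GI50 denotes the concentration required for 50% inhibition of growth.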 Active and inactive are the calls of the source. Rule as the data show it: active = GI50 up to about 1.1 µM and inactive = higher.

Key:
Experiment in all cases: growth of human tumour cells (NCI), 48 h
COLO 205 = system: COLO 205
NCI-H460 = system: NCI-H460
TK-10 = system: TK-10
SK-MEL-28 = system: SK-MEL-28
OVCAR-3 = system: OVCAR-3
MOLT-4 = system: MOLT-4
RPMI-8226 = system: RPMI-8226
A498 = system: A498
HCT-15 = system: HCT-15
A549 = system: A549
OVCAR-5 = system: OVCAR-5
NCI-H522 = system: NCI-H522
DU-145 = system: DU-145
EKVX = system: EKVX
M14 = system: M14
MDA-MB-435 = system: MDA-MB-435
PC-3 = system: PC-3
HT-29 = system: HT-29
UO-31 = system: UO-31
BT-549 = system: BT-549
SNB-19 = system: SNB-19
SK-OV-3 = system: SK-OV-3
SF-295 = system: SF-295
HCT-116 = system: HCT-116
T47D = system: T47D
SF-268 = system: SF-268
IGROV-1 = system: IGROV-1
U-251 = system: U-251
CCRF-CEM = system: CCRF-CEM
SF-539 = system: SF-539
HOP-92 = system: HOP-92
MDA-N = system: MDA-N
Malme-3M = system: Malme-3M
KM12 = system: KM12
SK-MEL-2 = system: SK-MEL-2
SNB-75 = system: SNB-75
Hs-578T = system: Hs-578T
NCI-H226 = system: NCI-H226
OVCAR-8 = system: OVCAR-8
SR = system: SR
LOX IMVI = system: LOX IMVI
NCI/ADR-RES = system: NCI/ADR-RES
SK-MEL-5 = system: SK-MEL-5
HOP-62 = system: HOP-62
MCF7 = system: MCF7
SN12C = system: SN12C
ACHN = system: ACHN
SW-620 = system: SW-620
786-0 = system: 786-0
RXF 393 = system: RXF 393
HL-60 = system: HL-60
OVCAR-4 = system: OVCAR-4
CAKI-1 = system: CAKI-1
UACC-257 = system: UACC-257
UACC-62 = system: UACC-62
MDA-MB-231 = system: MDA-MB-231
K562 = system: K562
NCI-H23 = system: NCI-H23
HCC 2998 = system: HCC 2998

SMILES: O=C1Nc2ccccc2S/C1=C\c1ccccc1C(F)(F)F
- GI50 (COLO 205): > 100 µM (inactive)
- GI50 (NCI-H460): 94.6 µM (inactive)
- GI50 (TK-10): 40.6 µM (inactive)
- GI50 (SK-MEL-28): > 100 µM (inactive)
- GI50 (OVCAR-3): > 100 µM (inactive)
- GI50 (MOLT-4): > 100 µM (inactive)
- GI50 (RPMI-8226): 64.1 µM (inactive)
- GI50 (A498): > 10 µM (inactive)
- GI50 (HCT-15): > 100 µM
- GI50 (A549): > 100 µM (inactive)
- GI50 (OVCAR-5): > 100 µM (inactive)
- GI50 (NCI-H522): 30.5 µM (inactive)
- GI50 (DU-145): > 100 µM (inactive)
- GI50 (EKVX): > 100 µM (inactive)
- GI50 (M14): > 100 µM (inactive)
- GI50 (MDA-MB-435): > 100 µM (inactive)
- GI50 (PC-3): > 100 µM (inactive)
- GI50 (HT-29): > 100 µM (inactive)
- GI50 (UO-31): > 100 µM (inactive)
- GI50 (BT-549): 59.7 µM (inactive)
- GI50 (SNB-19): > 100 µM (inactive)
- GI50 (SK-OV-3): 89.5 µM (inactive)
- GI50 (SF-295): > 100 µM (inactive)
- GI50 (HCT-116): > 100 µM (inactive)
- GI50 (T47D): > 100 µM (inactive)
- GI50 (SF-268): > 100 µM (inactive)
- GI50 (IGROV-1): 29 µM (inactive)
- GI50 (U-251): 71.9 µM (inactive)
- GI50 (CCRF-CEM): 2.24 µM (inactive)
- GI50 (SF-539): 72.8 µM (inactive)
- GI50 (HOP-92): 5.38 µM (inactive)
- GI50 (MDA-N): > 100 µM (inactive)
- GI50 (Malme-3M): > 100 µM (inactive)
- GI50 (KM12): > 100 µM (inactive)
- GI50 (SK-MEL-2): > 100 µM (inactive)
- GI50 (SNB-75): 34.4 µM (inactive)
- GI50 (Hs-578T): 51.9 µM (inactive)
- GI50 (NCI-H226): > 100 µM (inactive)
- GI50 (OVCAR-8): 72.6 µM (inactive)
- GI50 (SR): > 100 µM (inactive)
- GI50 (LOX IMVI): > 100 µM (inactive)
- GI50 (NCI/ADR-RES): > 100 µM (inactive)
- GI50 (SK-MEL-5): > 100 µM (inactive)
- GI50 (HOP-62): > 100 µM (inactive)
- GI50 (MCF7): 98.6 µM (inactive)
- GI50 (SN12C): > 100 µM (inactive)
- GI50 (ACHN): 15.1 µM (inactive)
- GI50 (SW-620): > 100 µM (inactive)
- GI50 (786-0): 44.1 µM (inactive)
- GI50 (RXF 393): > 100 µM (inactive)
- GI50 (HL-60): 4.2 µM (inactive)
- GI50 (OVCAR-4): 18.8 µM (inactive)
- GI50 (CAKI-1): 68.9 µM (inactive)
- GI50 (UACC-257): > 100 µM (inactive)
- GI50 (UACC-62): > 100 µM (inactive)
- GI50 (MDA-MB-231): > 100 µM (inactive)

SMILES: N#CC(C#N)/N=N/c1ccc(-c2nc3ccccc3o2)cc1
- GI50 (COLO 205): 11.7 µM (inactive)
- GI50 (K562): 8.61 µM (inactive)
- GI50 (NCI-H460): 13.9 µM (inactive)
- GI50 (NCI-H23): 10.1 µM (inactive)
- GI50 (TK-10): 11 µM (inactive)
- GI50 (SK-MEL-28): 6.12 µM (inactive)
- GI50 (OVCAR-3): 4.19 µM (inactive)
- GI50 (MOLT-4): 7.82 µM (inactive)
- GI50 (A498): 13.9 µM (inactive)
- GI50 (HCT-15): 14.8 µM
- GI50 (A549): 21 µM (inactive)
- GI50 (OVCAR-5): 17.4 µM (inactive)
- GI50 (NCI-H522): 5.02 µM (inactive)
- GI50 (DU-145): 13.3 µM (inactive)
- GI50 (EKVX): 11.7 µM (inactive)
- GI50 (M14): 15.2 µM (inactive)
- GI50 (MDA-MB-435): 16.5 µM (inactive)
- GI50 (PC-3): 8 µM (inactive)
- GI50 (HT-29): 12.8 µM (inactive)
- GI50 (UO-31): 13 µM (inactive)
- GI50 (BT-549): 12.1 µM (inactive)
- GI50 (SNB-19): 24.7 µM (inactive)
- GI50 (SK-OV-3): 18.6 µM (inactive)
- GI50 (HCT-116): 5.55 µM (inactive)
- GI50 (T47D): 4.32 µM (inactive)
- GI50 (SF-268): 27.5 µM (inactive)
- GI50 (IGROV-1): 19.4 µM (inactive)
- GI50 (U-251): 14.3 µM (inactive)
- GI50 (SF-539): 12.2 µM (inactive)
- GI50 (HOP-92): 6.81 µM (inactive)
- GI50 (MDA-N): 17.2 µM (inactive)
- GI50 (Malme-3M): 13.3 µM (inactive)
- GI50 (KM12): 20.9 µM (inactive)
- GI50 (SK-MEL-2): 12.4 µM (inactive)
- GI50 (SNB-75): 24.4 µM (inactive)
- GI50 (Hs-578T): 42 µM (inactive)
- GI50 (HCC 2998): 1.22 µM (inactive)
- GI50 (OVCAR-8): 23.6 µM (inactive)
- GI50 (SR): 16.2 µM (inactive)
- GI50 (LOX IMVI): 13.1 µM (inactive)
- GI50 (NCI/ADR-RES): 17.5 µM (inactive)
- GI50 (SK-MEL-5): 2.05 µM (inactive)
- GI50 (HOP-62): 16.6 µM (inactive)
- GI50 (MCF7): 11.1 µM (inactive)
- GI50 (SN12C): 13.2 µM (inactive)
- GI50 (ACHN): 12.9 µM (inactive)
- GI50 (SW-620): 11.2 µM (inactive)
- GI50 (786-0): 14.4 µM (inactive)
- GI50 (HL-60): 5.48 µM (inactive)
- GI50 (OVCAR-4): 12 µM (inactive)
- GI50 (UACC-257): 4.41 µM (inactive)
- GI50 (UACC-62): 6.05 µM (inactive)
- GI50 (MDA-MB-231): 17.8 µM (inactive)
